Results taken from patent publication US20210008145A1, “EDICINE COMPOSITION FOR TREATMENT OF HUMAN PAPILLOMAVIRUS INFECTION AND PREPARATION METHOD THEREOF” (Jiangsu Zhengyang Pharmaceutical Co., Ltd., priority 2018, published 2021).
Like-named read-outs stand apart in the source and are kept apart here.

System: HeLa cells
Assay: MTT assay, inhibition of HeLa cell proliferation
Assay type: cell-based
Settings: Homo sapiens, crude drug 25 g/L (cidofovir 10 μmol/mL), read-out: inhibition percentage on HeLa cell proliferation
Description: The percentage inhibition on HeLa cell proliferation for each compound prepared in Examples 1-7 was determined by MTT assay (MTT Cell Proliferation and Cytotoxicity Assay Kit). HeLa cells was cultured in a 96-well plate for 6.0×10^3 cells per well, and allowed to adhere to the surface of the 96-well plate. Serum-free medium was added to each well of control group. Cidofovir was diluted in purified water such that the final concentration of cidofovir in the assay was 10 μmol/mL, and the resulting solution was added to each well of positive control group. Each compound of Examples 1-7 was diluted in water to a crude drug concentration of 25 g/L, and the resulting solution was added to the 96-well plate for a final volume of 200 μL per well. 200 μL of complete medium was only added to each well of blank control group. Each experimental group was done in 6 well replicates. After incubation of 24, 48, and 72 hours, 20 μL of 5 g/L MTT was added to each well and the plates were further incubated at 37° C. for 4 hours. Following discarding the supernatant, 200 μL of dimethyl sulfoxide (DMSO) was added to each well and the plates were shaken sufficiently as so to dissolve the crystals. Absorbance (A) of the wells at 490 nm was measured. These measurements then are used to calculate the percentage inhibition of cell growth: percentage inhibition=1−[…]×100%, where TA refers to the average absorbance of treatment group, and CA refers to the average absorbance of control group.

Nc1ccn(C[C@@H](CO)OCP(=O)(O)O)c(=O)n1 [Cidofovir]
inhibition at 25000 µg/mL (24 hours): 32.2 ± 2.08% | inhibition at 25000 µg/mL (48 hours): 48.6 ± 3.5% | inhibition at 25000 µg/mL (72 hours): 58.1 ± 3.21%
